Patent publication US20230148599A1, “FUNGICIDAL MIXTURES CONTAINING PYRAZOLE DERIVATIVES” (FMC Corporation, priority 2020, published 2023)

What was measured:
Format in all cases: in vivo
Conditions in all cases: 50 ppm, 100 = 100% disease control, 0 = no control
Septoria tritici = assay: Test A: wheat leaf blotch, preventive spray on wheat seedlings
Excerpt: (§1) General protocol for preparing test suspensions for Tests A-F: the test compounds were first dissolved in acetone in an amount equal to 3% of the final volume and then suspended at the desired concentration (in ppm) in acetone and purified water (50/50 mix by volume) containing 250 ppm of the surfactant PEG400 (polyhydric alcohol esters). The resulting test suspensions were then used in Tests A-F.
(§2) The test solution was sprayed to the point of run-off on wheat seedlings. The following day the seedlings were inoculated with a spore suspension of Septoria tritici (the causal agent of wheat leaf blotch) and incubated in a saturated atmosphere at 24° C. for 48 h, and then moved to a growth chamber at 20° C. for 17 days, after which time disease ratings were made.
(§3) A rating of 100 indicates 100% disease control and a rating of 0 indicates no disease control (relative to the controls). A dash (−) indicates the compound was not tested.

[1] = tested on: Puccinia recondita f. sp. tritici; assay: Test B: wheat leaf rust, preventive spray on wheat seedlings
Excerpt: as §1
as §2, with “Puccinia recondita f. sp.” for “Septoria”, “rust)” for “blotch)”, “20°” for “24°”, “24” for “48”, “7” for “17”
as §3

[2] = tested on: Blumeria graminis f. sp. tritici; assay: Test C: wheat powdery mildew, preventive spray on wheat seedlings
Excerpt: as §1
The test suspension was sprayed to the point of run-off on wheat seedlings. The following day the seedlings were inoculated with a spore dust of Blumeria graminis f. sp. tritici, (also known as Erysiphe graminis f. sp. tritici, the causal agent of wheat powdery mildew) and incubated in a growth chamber at 20° C. for 8 days, after which time visual disease ratings were made.
as §3

Phakopsora pachyrhizi = assay: Test D: Asian soybean rust, preventive spray on soybean seedlings
Excerpt: as §1
The test solution was sprayed to the point of run-off on soybean seedlings. The following day the seedlings were inoculated with a spore suspension of Phakopsora pachyrhizi (the causal agent of Asian soybean rust) and incubated in a saturated atmosphere at 22° C. for 24 h and then moved to a growth chamber at 22° C. for 8 days, after which time visual disease ratings were made.
as §3

Botrytis cinerea = assay: Test E: tomato Botrytis, preventive spray on tomato seedlings
Excerpt: as §1
(§4) The test suspension was sprayed to the point of run-off on tomato seedlings. The following day the seedlings were inoculated with a spore suspension of Botrytis cinerea (the causal agent of tomato Botrytis) and incubated in a saturated atmosphere at 20° C. for 48 h, and then moved to a growth chamber at 24° C. for 3 days, after which time visual disease ratings were made.
as §3

Alternaria solani = assay: Test F: tomato early blight, preventive spray on tomato seedlings
Excerpt: as §1
as §4, with “Alternaria solani” for “Botrytis cinerea”, “early blight)” for “Botrytis)”, “27°” for “20°”, “20°” for “24°”
as §3

Row | SMILES | Test A disease control rating (Septoria tritici) | Test B disease control rating [1] | Test C disease control rating [2] | Test D disease control rating (Phakopsora pachyrhizi) | Test E disease control rating (Botrytis cinerea) | Test F disease control rating (Alternaria solani)
1 | Cc1nn(C)c(Nc2c(F)cccc2[N+](=O)[O-])c1-c1ccc(Cl)cc1Cl [compound 69] | 100% | 100% | 97% | 77% | 100% | 99%
2 | COc1ccc(-c2c(C)nn(C)c2Nc2ccccc2[N+](=O)[O-])c(Cl)c1 [compound 140] | 99% | 86% | 31% | 0% | 100% | 93%
3 | Cc1nn(C)c(Nc2c(Cl)cccc2[N+](=O)[O-])c1-c1c(F)cc(F)cc1Cl [compound 152] | 99% | 100% | 98% | 91% | 99% | 92%
4 | Cc1nn(C)c(Nc2c(F)cc(Cl)cc2[N+](=O)[O-])c1-c1ccc(F)cc1F [compound 102] | 100% | 100% | 100% | 48% | 99% | 99%
5 | Cc1cccc([N+](=O)[O-])c1Nc1c(-c2ccc(Cl)cc2Cl)c(C)nn1C [compound 144] | 100% | 68% | 35% | 69% | 0% | 0%
6 | Cc1ccc(Nc2c(-c3c(F)cc(F)cc3Br)c(C)nn2C)c([N+](=O)[O-])c1 [compound 196] | 100% | 99% | 98% | 0% | 98% | 91%
7 | Cc1cccc([N+](=O)[O-])c1Nc1c(-c2ccc(F)cc2F)c(C)nn1C [compound 177] | 100% | 97% | 50% | 0% | 100% | 9%
8 | Cc1nn(C)c(Nc2ccc(Cl)cc2[N+](=O)[O-])c1-c1ccc(F)cc1F [compound 78] | 100% | 89% | 95% | 0% | 68% | 0%
9 | CCc1nn(C)c(Nc2ccc(OC)cc2[N+](=O)[O-])c1-c1ccc(F)cc1F [compound 45] | 100% | 86% | 95% | 0% | 99% | 33%
10 | CCOc1ccc(Nc2c(-c3ccc(F)cc3Cl)c(C)nn2C)c([N+](=O)[O-])c1 [compound 103] | 97% | 80% | 50% | 0% | 83% | 0%
11 | Cc1nn(C)c(Nc2c(F)cc(F)cc2[N+](=O)[O-])c1-c1c(F)cccc1Cl [compound 39] | 100% | 100% | 99% | 73% | 88% | 99%
12 | Cc1nn(C)c(Nc2c(Cl)cc(Br)cc2[N+](=O)[O-])c1-c1ccc(F)cc1Cl [compound 8] | 99% | 99% | 92% | 73% | 99% | 73%
13 | Cc1cccc([N+](=O)[O-])c1Nc1c(-c2ccc(C#N)cc2Cl)c(C)nn1C [compound 157] | 100% | 97% | 76% | 0% | 9% | 0%
14 | Cc1nn(C)c(Nc2c(Cl)cc(Cl)cc2[N+](=O)[O-])c1-c1ccc(F)cc1Cl [compound 59] | 100% | 100% | 99% | 96% | 99% | 92%
15 | COc1ccc(-c2c(C)nn(C)c2Nc2ccc(OC)cc2[N+](=O)[O-])c(Cl)c1 [compound 187] | 99% | 100% | 91% | 0% | 100% | 100%
16 | CCc1nn(C)c(Nc2c(Cl)cc(Br)cc2[N+](=O)[O-])c1-c1ccc(F)cc1Cl [compound 128] | 100% | 98% | 96% | 31% | 99% | 33%
17 | Cc1nn(C)c(Nc2c(Cl)cccc2[N+](=O)[O-])c1-c1c(F)cccc1F [compound 77] | 100% | 100% | 95% | 73% | 72% | 9%
18 | Cc1cc(Cl)c(Nc2c(-c3ccc(F)cc3Br)c(C)nn2C)c([N+](=O)[O-])c1 [compound 181] | 100% | 100% | 99% | 78% | 99% | 99%
19 | Cc1nn(C)c(Nc2ccccc2[N+](=O)[O-])c1-c1c(F)cc(F)cc1Br [compound 154] | 99% | 80% | 98% | 0% | 99% | 51%
20 | Cc1nn(C)c(Nc2c(F)cccc2[N+](=O)[O-])c1-c1ccc(Cl)cc1F [compound 12] | 100% | 99% | 81% | 0% | 97% | 53%
21 | Cc1nn(C)c(Nc2c(F)cccc2[N+](=O)[O-])c1-c1ccc([N+](=O)[O-])cc1Cl [compound 192] | 100% | 99% | 76% | 19% | 99% | 93%
22 | COc1ccc(-c2c(C)nn(C)c2Nc2c(F)cc(OC)cc2[N+](=O)[O-])c(Cl)c1 [compound 186] | 100% | 100% | 99% | 94% | 100% | 100%
